# According to patent US12060347B2 (BRISTOL-MYERS SQUIBB COMPANY, priority 2016, dated 2024):
# pIC50: −log10 of the molar value.
# Target: T1, human PAR4 (Homo sapiens, UniProt Q96RI0)
# T1 construct: expressed in transfected cells; host or cells: HEK293 PAR4 Clone 1.2A (BMS Arctic ID 383940)
# T1 sequence (Q96RI0 18-385): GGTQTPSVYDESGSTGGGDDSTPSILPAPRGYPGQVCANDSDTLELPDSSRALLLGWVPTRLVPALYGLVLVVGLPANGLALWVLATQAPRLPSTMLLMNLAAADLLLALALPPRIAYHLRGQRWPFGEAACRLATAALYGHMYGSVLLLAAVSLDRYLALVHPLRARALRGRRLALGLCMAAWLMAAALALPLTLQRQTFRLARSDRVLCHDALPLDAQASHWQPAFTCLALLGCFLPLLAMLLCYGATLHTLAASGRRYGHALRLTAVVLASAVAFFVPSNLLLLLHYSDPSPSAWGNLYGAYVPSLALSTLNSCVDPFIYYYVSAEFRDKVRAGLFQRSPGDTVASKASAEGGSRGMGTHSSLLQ
# Test: PAR4 FLIPR assay: antagonism of agonist-peptide-induced calcium mobilization in PAR4-expressing HEK293 cells
# Assay type: cell-based
# Settings: H-Ala-Phe(4-F)-[…]NH2-induced intracellular calcium mobilization, 11-point curves
row,pIC50,Compound
1,8.48,"COc1cnc2c(-c3nc4c(C)cc(OCCNS(=O)(=O)c5ccc(F)cc5)cc4s3)cc(C)cc2n1 [Example 26, 4-fluoro-N-(2-((2-(2-methoxy-7-methylquinoxalin-5-yl)-4-methylbenzo[d]thiazol-6-yl)oxy)ethyl)benzenesulfonamide]"
2,8.27,"COc1cnc2c(-c3nc4c(Cl)cc(OCCNS(=O)(=O)c5ccccc5)cc4s3)cc(C)cc2n1 [Example 27, N-(2-((4-chloro-2-(2-methoxy-7-methylquinoxalin-5-yl)benzo[d]thiazol-6-yl)oxy)ethyl)benzenesulfonamide]"
3,8.52,"COc1cnc2c(-c3nc4c(Cl)cc(OCCNS(=O)(=O)c5ccc(F)cc5)cc4s3)cc(C)cc2n1 [Example 28, N-(2-((4-chloro-2-(2-methoxy-7-methylquinoxalin-5-yl)benzo[d]thiazol-6-yl)oxy)ethyl)-4-fluorobenzenesulfonamide]"
4,8.85,"COCc1cnc2c(-c3nc4c(C)cc(OCCNS(=O)(=O)c5ccc(F)cc5)cc4s3)cc(C)cc2n1 [Example 29, 4-fluoro-N-(2-((2-(2-(methoxymethyl)-7-methylquinoxalin-5-yl)-4-methylbenzo[d]thiazol-6-yl)oxy)ethyl)benzenesulfonamide]"
5,8.33,"CCOc1cnc2c(-c3nc4c(C)cc(OCCNS(=O)(=O)c5ccc(F)cc5)cc4s3)cc(C)cc2n1 [Example 30, N-(2-((2-(2-ethoxy-7-methylquinoxalin-5-yl)-4-methylbenzo[d]thiazol-6-yl)oxy)ethyl)-4-fluorobenzenesulfonamide]"
6,6.62,"CCc1cnc2c(-c3nc4c(C)cc(OCCNS(=O)(=O)c5ccc(F)cc5)cc4s3)cc(C)cc2n1 [Example 31, N-(2-((2-(2-ethyl-7-methylquinoxalin-5-yl)-4-methylbenzo[d]thiazol-6-yl)oxy)ethyl)-4-fluorobenzenesulfonamide]"
7,8.52,"COC(=O)c1cnc2c(-c3nc4c(C)cc(OCCNS(=O)(=O)c5ccc(F)cc5)cc4s3)cc(C)cc2n1 [Example 32, methyl 5-(6-(2-(4-fluorophenylsulfonamido)ethoxy)-4-methylbenzo[d]thiazol-2-yl)-7-methylquinoxaline-2-carboxylate]"
8,6.92,"Cc1cc(-c2nc3c(C)cc(OCCNS(=O)(=O)c4ccc(F)cc4)cc3s2)c2ncc(OC3CC3)nc2c1 [Example 33, N-(2-((2-(2-cyclopropoxy-7-methylquinoxalin-5-yl)-4-methylbenzo[d]thiazol-6-yl)oxy)ethyl)-4-fluorobenzenesulfonamide]"
9,8.80,"Cc1cc(-c2nc3c(C)cc(OCCNS(=O)(=O)c4ccc(F)cc4)cc3s2)c2ncc(OCF)nc2c1 [Example 34, 4-fluoro-N-(2-((2-(2-(fluoromethoxy)-7-methylquinoxalin-5-yl)-4-methylbenzo[d]thiazol-6-yl)oxy)ethyl)benzenesulfonamide]"
10,7.27,"COc1cnc2c(-c3nc4c(C)cc(OCc5cnc(-c6ccccc6)[nH]5)cc4s3)cc(C)cc2n1 [Example 35, 2-(2-methoxy-7-methylquinoxalin-5-yl)-4-methyl-6-((2-phenyl-1H-imidazol-5-yl)methoxy)benzo[d]thiazole]"
11,8.11,"COc1cnc2c(-c3nc4c(C)cc(OCC(=O)NCc5ccccc5)cc4s3)cc(C)cc2n1 [Example 36, N-benzyl-2-((2-(2-methoxy-7-methylquinoxalin-5-yl)-4-methylbenzo[d]thiazol-6-yl)oxy)acetamide]"
12,8.00,"COc1cnc2c(-c3cc4cc(OCCNS(=O)(=O)c5ccccc5)cc(Cl)c4o3)cc(C)cc2n1 [Example 39, N-(2-((7-chloro-2-(2-methoxy-7-methylquinoxalin-5-yl)benzofuran-5-yl)oxy)ethyl)benzenesulfonamide]"

# More lines, now with the values behind:
row,Compound,pIC50
1,"Cc1cc(-c2nc3ccc(OCCNC(=O)OC4CCOC4)cc3s2)c2ncc(OC(F)F)nc2c1 (centres unmarked) [Example 16, tetrahydrofuran-3-yl (2-((2-(2-(difluoromethoxy)-7-methylquinoxalin-5-yl)benzo[d]thiazol-6-yl)oxy)ethyl)carbamate]",7.10
2,"Cc1cc(-c2nc3cccc(OCCOc4ccccc4)c3s2)c2ncc(OC(F)F)nc2c1 [Example 17, 2-(2-(difluoromethoxy)-7-methylquinoxalin-5-yl)-7-(2-phenoxyethoxy)benzo[d]thiazole]",7.89
3,"Cc1cc(-c2nc3cccc(OCCOCc4ccccc4)c3s2)c2ncc(OC(F)F)nc2c1 [Example 18, 7-(2-(benzyloxy)ethoxy)-2-(2-(difluoromethoxy)-7-methylquinoxalin-5-yl) benzo[d]thiazole]",7.01
4,"Cc1cc(-c2nc3ccc(OCCNC(=O)OCC4CCCO4)cc3s2)c2ncc(OC(F)F)nc2c1 (centres unmarked) [Example 19, (Tetrahydrofuran-2-yl)methyl (2-((2-(2-(difluoromethoxy)-7-methylquinoxalin-5-yl)benzo[d]thiazol-6-yl)oxy)ethyl)carbamate]",7.39
5,"Cc1cc(-c2nc3ccc(OCCNC(=O)OC4CCOCC4)cc3s2)c2ncc(OC(F)F)nc2c1 [Example 20, tetrahydro-2H-pyran-4-yl (2-((2-(2-(difluoromethoxy)-7-methylquinoxalin-5-yl)benzo[d]thiazol-6-yl)oxy)ethyl)carbamate]",7.52
6,"Cc1cc(-c2nc3cccc(NC(=O)OC4CCOCC4)c3s2)c2ncc(OC(F)F)nc2c1 [Example 21, tetrahydro-2H-pyran-4-yl (2-(2-(difluoromethoxy)-7-methylquinoxalin-5-yl)benzo[d]thiazol-7-yl)carbamate]",8.48
7,"Cc1cc(-c2nc3cccc(NC(=O)OCC4CCCO4)c3s2)c2ncc(OC(F)F)nc2c1 (centres unmarked) [Example 22, (Tetrahydrofuran-2-yl)methyl (2-(2-(difluoromethoxy)-7-methylquinoxalin-5-yl)benzo[d]thiazol-7-yl)carbamate]",8.74
8,"COc1ccc2nc(-c3cc(C)cc4nc(OC(F)F)cnc34)sc2n1 [Example 23, 2-(2-(difluoromethoxy)-7-methylquinoxalin-5-yl)-5-methoxythiazolo[5,4-b]pyridine]",8.28
9,"COc1cncc2nc(-c3cc(C)cc4nc(OC(F)F)cnc34)sc12 [Example 24, 2-(2-(difluoromethoxy)-7-methylquinoxalin-5-yl)-7-methoxythiazolo[4,5-c]pyridine]",8.70
10,"Cc1cc(-c2cc3c(o2)CCCC3NC(=O)OC(C)(C)C)c2ncc(OC(F)F)nc2c1 (centres unmarked) [Example 25, tert-butyl (2-(2-(difluoromethoxy)-7-methylquinoxalin-5-yl)-4,5,6,7-tetrahydrobenzofuran-4-yl)carbamate]",6.89
11,"COc1cnc2c(-c3cc4cccc(Cl)c4o3)cc(C)cc2n1 [Example 37, 5-(7-chlorobenzofuran-2-yl)-2-methoxy-7-methylquinoxaline]",7.66
12,"COc1cnc2c(-c3cc4cc(OCCOC(=O)Nc5ccnc(C)c5)cc(Cl)c4o3)cc(C)cc2n1 [Example 38, 2-((7-chloro-2-(2-methoxy-7-methylquinoxalin-5-yl)benzofuran-5-yl)oxy)ethyl (2-methylpyridin-4-yl)carbamate]",8.68
13,"Cc1cc(-c2cc3ccccc3s2)c2ncc(OC(F)F)nc2c1 [Example 40, 5-(benzo[b]thiophen-2-yl)-2-(difluoromethoxy)-7-methylquinoxaline]",7.44
14,"COc1cccc2cc(-c3cc(C)cc4nc(OC(F)F)cnc34)oc12 [Example 41, 2-(difluoromethoxy)-5-(7-methoxybenzofuran-2-yl)-7-methylquinoxaline]",6.40
15,"COc1cccc2oc(-c3cc(C)cc4nc(OC(F)F)cnc34)cc12 [Example 42, 2-(difluoromethoxy)-5-(4-methoxybenzofuran-2-yl)-7-methylquinoxaline]",8.28
16,"COc1cnc2c(-c3cc4c(OCc5ccccc5)cccc4o3)cc(C)cc2n1 [Example 43, 5-(4-(benzyloxy)benzofuran-2-yl)-2-methoxy-7-methylquinoxaline]",6.77
17,"Cc1cc(-c2cc3cc(OCc4ccccc4)ccc3o2)c2ncc(OC(F)F)nc2c1 [Example 44, 5-(5-(benzyloxy)benzofuran-2-yl)-2-(difluoromethoxy)-7-methylquinoxaline]",6.66
18,"Cc1cc(-c2cn3ccccc3n2)c2ncc(OC(F)F)nc2c1 [Example 45, 2-(difluoromethoxy)-5-(imidazo[1,2-a]pyridin-2-yl)-7-methylquinoxaline]",7.00
19,"COC(=O)NCCOc1ccc2oc(-c3cc(C)cc4nc(OC(F)F)cnc34)cc2c1 [Example 46, methyl 2-(2-(2-(difluoromethoxy)-7-methylquinoxalin-5-yl)benzofuran-5-yloxy)ethylcarbamate]",7.77
20,"Cc1cc(-c2nc3ccccc3[nH]2)c2ncc(OC(F)F)nc2c1 [Example 47, 5-(1H-benzo[d]imidazol-2-yl)-2-(difluoromethoxy)-7-methylquinoxaline]",7.47
21,"COc1ccc2nc(-c3cc(C)cc4nc(OC(F)F)cnc34)sc2c1 [Example 48, 2-(2-(difluoromethoxy)-7-methylquinoxalin-5-yl)-6-methoxybenzo[d]thiazole]",8.68
22,"Cc1cc(-c2cc3cc(OCC(=O)OC(C)(C)C)ccc3o2)c2ncc(OC(F)F)nc2c1 [Example 49, tert-butyl 2-(2-(2-(difluoromethoxy)-7-methylquinoxalin-5-yl)benzofuran-5-yloxy) acetate]",8.01
23,"COc1ccc2[nH]c(-c3cc(C)cc4nc(OC(F)F)cnc34)nc2c1 [Example 50, 2-(difluoromethoxy)-5-(5-methoxy-1H-benzo[d]imidazol-2-yl)-7-methylquinoxaline]",7.04
